How the values were obtained:
Assay in all cases: relative viability (nuclei count vs DMSO), 5 days (fraction); higher = more cells survive
Serdemetan + AZD7762 = compound: c1ccc2c(CCNc3ccc(Nc4ccncc4)cc3)c[nH]c2c1 [Serdemetan] + NC(=O)Nc1cc(-c2cccc(F)c2)sc1C(=O)N[C@H]1CCCNC1 [AZD7762] (partner 0.2 µM)
Summary of the method: (§1)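 After 5 days of treatment, lung cancer cells in 1536-well plates were fixed and stained in a single step (final 0.05% Triton X-100, 1% formaldehyde, 1 ug/ml Hoechst) and their nuclei counted on 4× images. Treatment had been applied by pin tool the day after seeding as one drug alone or as a fixed anchor-drug dose with five library-drug doses (not always all listed) in √10 steps. Relative viability is the nuclei count of treated wells divided by that of vehicle wells, and values are medians of duplicate plates.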

Serdemetan + Pictilisib = compound: c1ccc2c(CCNc3ccc(Nc4ccncc4)cc3)c[nH]c2c1 [Serdemetan] + CS(=O)(=O)N1CCN(Cc2cc3nc(-c4cccc5[nH]ncc45)nc(N4CCOCC4)c3s2)CC1 [Pictilisib] (partner 1 µM)
Summary of the method: as §1

Selisistat + Olaparib = compound: C1CC(C2=C(C1)C3=C(N2)C=CC(=C3)Cl)C(=O)N [Selisistat] + O=C(c1cc(Cc2n[nH]c(=O)c3ccccc23)ccc1F)N1CCN(C(=O)C2CC2)CC1 [Olaparib] (partner 8 µM)
Summary of the method: as §1

Selisistat + Luminespib = compound: C1CC(C2=C(C1)C3=C(N2)C=CC(=C3)Cl)C(=O)N [Selisistat] + CCNC(=O)c1noc(-c2cc(C(C)C)c(O)cc2O)c1-c1ccc(CN2CCOCC2)cc1 [Luminespib] (partner 0.01 µM)
Summary of the method: as §1

Cell Line | relative viability (Serdemetan + AZD7762; first compound 0.04 µM) | relative viability (Serdemetan + AZD7762; first compound 0.1265 µM) | relative viability (Serdemetan + AZD7762; first compound 0.4 µM) | relative viability (Serdemetan + AZD7762; first compound 1.265 µM) | relative viability (Serdemetan + AZD7762; first compound 4 µM) | relative viability (Serdemetan + Pictilisib; first compound 0.04 µM) | relative viability (Serdemetan + Pictilisib; first compound 0.1265 µM) | relative viability (Serdemetan + Pictilisib; first compound 0.4 µM) | relative viability (Serdemetan + Pictilisib; first compound 1.265 µM) | relative viability (Serdemetan + Pictilisib; first compound 4 µM) | relative viability (Selisistat + Olaparib; first compound 0.4 µM) | relative viability (Selisistat + Olaparib; first compound 1.265 µM) | relative viability (Selisistat + Olaparib; first compound 4 µM) | relative viability (Selisistat + Olaparib; first compound 12.65 µM) | relative viability (Selisistat + Olaparib; first compound 40 µM) | relative viability (Selisistat + Luminespib; first compound 0.4 µM) | relative viability (Selisistat + Luminespib; first compound 1.265 µM) | relative viability (Selisistat + Luminespib; first compound 12.65 µM) | relative viability (Selisistat + Luminespib; first compound 40 µM) | relative viability (Selisistat + Luminespib; first compound 4 µM)
HCC-15 | 0.952 | 1.49 | 1.23 | 0.72 | 1.07 | 0.753 | 0.821 | 0.708 | 0.567 | 0.638 | 0.822 | 0.712 | 0.855 | 0.675 | 0.743 | 0.329 | 0.205 | 0.373 | 0.319 | –
ABC-1 | 0.971 | 0.67 | 0.722 | – | 0.866 | 0.674 | 0.673 | 0.616 | 0.367 | 0.294 | 0.715 | 0.686 | – | 0.876 | 0.69 | 0.477 | 0.483 | – | 0.627 | –
LCLC-103H | 0.788 | 0.79 | 0.763 | 0.759 | 0.812 | 0.629 | 0.665 | 0.619 | 0.594 | 0.611 | 0.814 | 0.798 | 0.78 | 0.724 | 0.833 | 1.06 | 0.936 | 0.863 | 1.06 | 0.926
NCI-H441 | 1.28 | 1.19 | 1.05 | 0.858 | 0.548 | 0.486 | 0.481 | 0.418 | 0.277 | 0.384 | 0.49 | 0.51 | 0.582 | 0.504 | 0.534 | 0.294 | 0.382 | 0.339 | 0.344 | 0.349
EPLC-272H | 0.245 | 0.217 | 0.221 | 0.221 | 0.215 | 0.365 | 0.348 | 0.293 | 0.27 | 0.33 | 0.888 | 0.787 | 0.626 | 0.749 | 0.657 | 0.213 | 0.409 | 0.32 | 0.197 | –

— the supplement of paper PMC10307832
